We go through 10 molecules from patent US20260206813A1, “COMPOSITION FOR PROMOTING GHRELIN SECRETION” (Meiji Co., Ltd., priority 2022, published 2026).

This experiment concerns mouse stomach-derived ghrelin-secreting cell line MGN3-1. The experiment can be described thus: Secretion of active (acylated) ghrelin from MGN3-1 cells, ELISA. Type of experiment: cell-based. The note with it: for Acylated ghrelin (% control): 2 hours culture, control = 100; for ghrelin secretion promoting effect: conclusion from Table 3, absence of a gastric lipase. Here is the method: The mouse stomach-derived ghrelin-secreting cell line MGN3-1 was seeded at 1×10^5 cells/well in a 96-well plate and cultured for 24 hours. After culturing, the cells were washed with 200 μL of Dulbecco's PBS, and 100 μL of each solution containing one test substance as indicated in Table 1 (buffer solution: 50 μM sodium octanoate/DMEM) was added (test group). The concentration of the test substance was applied at 10 μM or 30 μM. In the control group, 100 μL of a buffer solution without test substance was added. The number of trials performed, n, for each group was 4. After each group was cultured for 2 hours, a culture solution was recovered and centrifuged (800 g, 5 minutes, 4° C.) to obtain 80 μL of a supernatant. The supernatant was added with 8 μL of 1 N HCl and stored at −80° C. Next, active ghrelin (acylated ghrelin) in the sample was measured by the ELISA method (Ghrelin (Acylated) EIA Kit A05117, Bertin Pharma). Average values of measured values of the concentrations of ghrelin secreted when the test substances as indicated in Table 2 or Table 3 were added were calculated and indicated as values (%) assuming that the value of the control is 100 (Tables 2 and 3). The test was conducted again using the same testing method as described above, and the concentration of active ghrelin (acylated ghrelin) secreted in the sample was measured (FIGS. 2 and 3).
Statistical analysis was performed using a t-test or one-way ANOVA (one-way analysis of variance), and a multiple comparison test was conducted using the Tukey-Kramer test.
In general terms: An ELISA detects its analyte on a solid surface through an enzyme-linked reagent.

The mark [1] stands for this setting: Table 2, test substance 10 μM, n=4.
[2] abbreviates: Table 2, test substance 30 μM, n=4.
The mark [3] stands for this setting: Table 3, test substance 30 μM, n=4.

For the molecule `CCCCCCCCCCCCCCCC(=O)O` [Test substance 1, Palmitic acid, reference compound], the “difference of acylated ghrelin from the control” value (Table 2, concentration not stated (10 μM and 30 μM tested)) is listed as “no differences”. In addition, the “Acylated ghrelin (% control)” value by setting is: under setting [1], 82 % control; under setting [2], 107 % control.
Take `CCCCCCCC/C=C\CCCCCCCC(=O)O` [Test substance 2, Oleic acid]: the “Acylated ghrelin (% control)” value under setting [1] amounted to 146 % control and the “Acylated ghrelin (% control)” value under setting [2] is on record as 138 % control.
As to `CCCCCCCCCCCCCCCC(=O)OCC(O)CO` (centres unmarked) [Test substance 3, 1-Monopalmitin], the “difference of acylated ghrelin from the control” value (Table 2, 10 μM) is given as “no differences”. Also, the “acylated ghrelin concentration as compared with the control” value (Table 2, printed 30 M) is recorded as “increase”. Also, the “Acylated ghrelin (% control)” value under setting [1] is 105 % control and the “Acylated ghrelin (% control)” value under setting [2] came to 134 % control.
Turning to `CCCCCCCCCCCCCCCC(=O)OC(CO)CO` [Test substance 4, 2-Monopalmitin], the “increase of acylated ghrelin concentration as compared with the control” value (FIG. 1, repeat test, 30 μM, n=4, significant (p<0.05)) is “about 1.2 times”. The “Acylated ghrelin (% control)” value came out at 168 % control under setting [1], 218 % control under setting [2] and 389 % control under setting [3].
Turning to `CCCCCCCC/C=C\CCCCCCCC(=O)OCC(O)CO` (centres unmarked) [Test substance 5, 1-Monoolein], the “Acylated ghrelin (% control)” value is 177 % control under setting [1], 209 % control under setting [2] and 388 % control under setting [3].
For the molecule `CCCCCCCC/C=C\CCCCCCCC(=O)OC(CO)CO` [Test substance 6, 2-Monoolein], the “Acylated ghrelin (% control)” value was 193 % control under setting [1], 206 % control under setting [2] and 336 % control under setting [3].
With `CCCCCCCC/C=C\CCCCCCCC(=O)OCC(CO)OC(=O)CCCCCCCCCCCCCCC` (centres unmarked) [Test substance 7, 1-Oleoyl-2-palmitoylglycerol], the “Acylated ghrelin (% control)” value under setting [3] is 237 % control. The “ghrelin secretion promoting effect” value (30 μM) was “ghrelin secretion promoting effect”.
For the molecule `CCCCCCCC/C=C\CCCCCCCC(=O)OC(CO)COC(=O)CCCCCCCCCCCCCCC` (centres unmarked) [Test substance 8, 1-Palmitoyl-2-oleoylglycerol], the “Acylated ghrelin (% control)” value under setting [3] was 206 % control. The “ghrelin secretion promoting effect” value (30 μM) is reported as “ghrelin secretion promoting effect”.
As for `CCCCCCCC/C=C\CCCCCCCC(=O)OCC(COC(=O)CCCCCCC/C=C\CCCCCCCC)OC(=O)CCCCCCCCCCCCCCC` [Test substance 9, 1,3-Dioleoyl-2-palmitoylglycerol], under setting [3], the “Acylated ghrelin (% control)” value came out at 116 % control. Where the note is “30 μM”, the “ghrelin secretion promoting effect” value is “ghrelin secretion promoting effect”. Moreover, the “acylated ghrelin concentration as compared with the control” value (summary of Table 3, 30 μM) is “increased”.
Take `CCCCCCCC/C=C\CCCCCCCC(=O)OC(COC(=O)CCCCCCCCCCCCCCC)COC(=O)CCCCCCCCCCCCCCC` [Test substance 10, 1,3-Dipalmitoyl-2-oleoylglycerol]: the “Acylated ghrelin (% control)” value under setting [3] came out at 138 % control. In addition, the “ghrelin secretion promoting effect” value (30 μM) was “ghrelin secretion promoting effect”. The “acylated ghrelin concentration as compared with the control” value (summary of Table 3, 30 μM) is reported as “increased”.
